Reference: patent US20260285850A1, “SUBSTITUTED OXAZOLIDINONES AND IMIDAZOLINONES AS HERBICIDES” (FMC CORPORATION, priority 2023, published 2026)

Key:
Type in all cases: in vivo
[1] = test system: sedge, umbrella (small-flower umbrella sedge, Cyperus difformis); experiment: Test B flooded paddy test, visual plant response rating 0-100; settings: 250 g ai/ha, Flood, applied to paddy water, evaluated after 13 days
Summary of the method: (§1)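 Plants were grown to the 2-leaf stage, then pots were flooded to 3 cm above the soil and compound was applied directly to the paddy water, with that depth kept throughout.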

[2] = test system: ducksalad (Heteranthera limosa); experiment: as above; settings: 250 g ai/ha, Flood, applied to paddy water, evaluated after 13 days
Summary of the method: as §1

[3] = test system: rice (Oryza sativa); experiment: as above; settings: 250 g ai/ha, Flood, applied to paddy water, evaluated after 13 days
Summary of the method: as §1

[4] = test system: barnyardgrass (Echinochloa crusgalli); experiment: as above; settings: 250 g ai/ha, Flood, applied to paddy water, evaluated after 13 days
Summary of the method: as §1

[5] = test system: kochia (Bassia scoparia); experiment: Test A preemergence soil spray, visual injury rating 0-100; settings: 10 days, 0 = no effect, 100 = complete control
Summary of the method: (§2)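 Preemergence directed soil spray or postemergence spray (2-10 cm, 1-2 leaf); loam/sand mix; compound in non-phytotoxic solvent + surfactant. Greenhouse, 10 d. Visual injury vs untreated, 0 = none, 100 = complete control.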

[6] = test system: blackgrass (Alopecurus myosuroides); experiment: as above; settings: 10 days, 0 = no effect, 100 = complete control
Summary of the method: as §2

[7] = test system: oat, wild (wild oat, Avena fatua); experiment: as above; settings: 10 days, 0 = no effect, 100 = complete control
Summary of the method: as §2

[8] = test system: soybean (Glycine max); experiment: as above; settings: 10 days, 0 = no effect, 100 = complete control
Summary of the method: as §2

[9] = test system: barnyardgrass (Echinochloa crus-galli); experiment: as above; settings: 10 days, 0 = no effect, 100 = complete control
Summary of the method: as §2

[10] = test system: ragweed (common ragweed, Ambrosia artemisiifolia); experiment: as above; settings: 10 days, 0 = no effect, 100 = complete control
Summary of the method: as §2

[11] = test system: corn (Zea mays); experiment: as above; settings: 10 days, 0 = no effect, 100 = complete control
Summary of the method: as §2

[12] = test system: ryegrass, Italian (italian ryegrass, Lolium multiflorum); experiment: as above; settings: 10 days, 0 = no effect, 100 = complete control
Summary of the method: as §2

[13] = test system: wheat (Triticum aestivum); experiment: as above; settings: 10 days, 0 = no effect, 100 = complete control
Summary of the method: as §2

[14] = test system: palmer (palmer amaranth, palmer pigweed, Amaranthus palmeri); experiment: as above; settings: 10 days, 0 = no effect, 100 = complete control
Summary of the method: as §2

[15] = test system: green foxtail (Setaria viridis); experiment: as above; settings: 10 days, 0 = no effect, 100 = complete control
Summary of the method: as §2

[16] = test system: kochia (Bassia scoparia); experiment: Test A postemergence application, visual injury rating 0-100; settings: 10 days
Summary of the method: as §2

[17] = test system: blackgrass (Alopecurus myosuroides); experiment: as above; settings: 10 days
Summary of the method: as §2

[18] = test system: oat, wild (wild oat, Avena fatua); experiment: as above; settings: 10 days
Summary of the method: as §2

[19] = test system: soybean (Glycine max); experiment: as above; settings: 10 days
Summary of the method: as §2

[20] = test system: horseweed (Erigeron canadensis); experiment: as above; settings: 10 days
Summary of the method: as §2

[21] = test system: galium (catchweed bedstraw, Galium aparine); experiment: as above; settings: 10 days
Summary of the method: as §2

[22] = test system: barnyardgrass (Echinochloa crus-galli); experiment: as above; settings: 10 days
Summary of the method: as §2

[23] = test system: ragweed (common ragweed, Ambrosia artemisiifolia); experiment: as above; settings: 10 days
Summary of the method: as §2

[24] = test system: corn (Zea mays); experiment: as above; settings: 10 days
Summary of the method: as §2

[25] = test system: ryegrass, Italian (italian ryegrass, Lolium multiflorum); experiment: as above; settings: 10 days
Summary of the method: as §2

[26] = test system: wheat (Triticum aestivum); experiment: as above; settings: 10 days
Summary of the method: as §2

[27] = test system: palmer (palmer amaranth, palmer pigweed, Amaranthus palmeri); experiment: as above; settings: 10 days
Summary of the method: as §2

[28] = test system: green foxtail (Setaria viridis); experiment: as above; settings: 10 days
Summary of the method: as §2

[29] = 31 g ai/ha, postemergence, 0 = no effect, 100 = complete control
[30] = Postemergence, 125 g ai/ha, 0 is no effect, 100 is complete control

CC1(C(=O)NC2C=CC(C(=O)OCC(F)(F)F)C2)CN(c2cc(F)cc(F)c2)C(=O)O1 (stereo not shown) [Compound 55]
Plant response rating, Sedge, Umbrella (0 to 100 scale, 0 is no effect and 100 is complete control) [1]: 45
Plant response rating, Ducksalad (0 to 100 scale, 0 is no effect and 100 is complete control) [2]: 85
Plant response rating, Rice (0 to 100 scale, 0 is no effect and 100 is complete control) [3]: 15
Plant response rating, Barnyardgrass (0 to 100 scale, 0 is no effect and 100 is complete control) [4]: 90
Kochia plant response rating (0-100) ([5]; 31 g ai/ha): 0
Kochia plant response rating (0 to 100 scale) ([5]; 125 g ai/ha): 90
Blackgrass plant response rating (0-100) ([6]; 31 g ai/ha): 20
Blackgrass plant response rating (0 to 100 scale) ([6]; 125 g ai/ha): 90
Oat, Wild plant response rating (0-100) ([7]; 31 g ai/ha): 60
Oat, Wild plant response rating (0 to 100 scale) ([7]; 125 g ai/ha): 90
Soybean plant response rating (0-100) ([8]; 31 g ai/ha): 40
Soybean plant response rating (0 to 100 scale) ([8]; 125 g ai/ha): 80
Barnyardgrass plant response rating (0-100) ([9]; 31 g ai/ha): 20
Barnyardgrass plant response rating (0 to 100 scale) ([9]; 125 g ai/ha): 100
Ragweed plant response rating (0-100) ([10]; 31 g ai/ha): 0
Ragweed plant response rating (0 to 100 scale) ([10]; 125 g ai/ha): 0
Corn plant response rating (0-100) ([11]; 31 g ai/ha): 20
Corn plant response rating (0 to 100 scale) ([11]; 125 g ai/ha): 40
Ryegrass, Italian plant response rating (0-100) ([12]; 31 g ai/ha): 80
Ryegrass, Italian plant response rating (0 to 100 scale) ([12]; 125 g ai/ha): 90
Wheat plant response rating (0-100) ([13]; 31 g ai/ha): 90
Wheat plant response rating (0 to 100 scale) ([13]; 125 g ai/ha): 100
Amaranth, Palmer plant response rating (0-100) ([14]; 31 g ai/ha): 20
Amaranth, Palmer plant response rating (0 to 100 scale) ([14]; 125 g ai/ha): 70
Foxtail, Green plant response rating (0-100) ([15]; 31 g ai/ha): 0
Foxtail, Green plant response rating (0 to 100 scale) ([15]; 125 g ai/ha): 90
Kochia plant response rating (0-100) [16, 29]: 80
Kochia plant response rating (0 to 100 scale) [16, 30]: 80
Blackgrass plant response rating (0-100) [17, 29]: 50
Blackgrass plant response rating (0 to 100 scale) [17, 30]: 100
Oat, Wild plant response rating (0-100) [18, 29]: 90
Oat, Wild plant response rating (0 to 100 scale) [18, 30]: 90
Soybean plant response rating (0-100) [19, 29]: 70
Soybean plant response rating (0 to 100 scale) [19, 30]: 70
Horseweed plant response rating (0-100) [20, 29]: 70
Horseweed plant response rating (0 to 100 scale) [20, 30]: 80
Galium plant response rating (0-100) [21, 29]: 80
Galium plant response rating (0 to 100 scale) [21, 30]: 80
Barnyardgrass plant response rating (0-100) [22, 29]: 90
Barnyardgrass plant response rating (0 to 100 scale) [22, 30]: 100
Ragweed plant response rating (0-100) [23, 29]: 50
Ragweed plant response rating (0 to 100 scale) [23, 30]: 60
Corn plant response rating (0-100) [24, 29]: 100
Corn plant response rating (0 to 100 scale) [24, 30]: 100
Ryegrass, Italian plant response rating (0-100) [25, 29]: 90
Ryegrass, Italian plant response rating (0 to 100 scale) [25, 30]: 90
Wheat plant response rating (0-100) [26, 29]: 80
Wheat plant response rating (0 to 100 scale) [26, 30]: 90
Amaranth, Palmer plant response rating (0-100) [27, 29]: 80
Amaranth, Palmer / Pigweed, Palmer plant response rating (0 to 100 scale) [27, 30]: 90
Foxtail, Green plant response rating (0-100) [28, 29]: 20
Foxtail, Green plant response rating (0 to 100 scale) [28, 30]: 80
